Earlier results on 1 molecule are cited in patent EP0529484A1, “Antitussive and expectorant composition” (ND NEW DRUG DEVELOPMENT INSTITUTE INC., priority 1991, dated 1993).

The subject of data set [1] is mouse.
Data set [2] relates to rat.

Take `C[N+]1(CCF)[C@@H]2CC[C@H]1C[C@@H](OC(=O)C(O)(c1ccccc1)c1ccccc1)C2` (stereo partly drawn) [flutropium bromide, 8(r)-8-(2-fluoroethyl)-3α-hydroxy-1αH,5αH-tropanium bromide, benzilate hydrate]: the “LD₅₀ through oral administration” value was 930 mg/kg in data set [1] and 2,900 mg/kg in data set [2].
